{"source": "ChEMBL document CHEMBL4393693", "about": "“Synthesis and Structure-Activity relationship of 1-(5-isoquinolinesulfonyl)piperazine analogues as inhibitors of Mycobacterium tuberculosis IMPDH” (Eur J Med Chem, 2019)"}
{"tested_on": "Mycobacterium tuberculosis", "assay": "Antimycobacterial activity against Mycobacterium tuberculosis H37Rv SRMV2.6 harboring GuaB2 Tyr487Cys mutant assessed as reduction in bacterial cell growth incubated for 3 to 4 weeks by alamar blue fluorescence based broth microdilution assay", "assay_type": "functional", "units": {"MIC90": "µM"}}
{"compound": "COc1cccc(CNC(=O)N2CCN(S(=O)(=O)c3cccc4cnccc34)CC2)c1", "MIC90": ">100"}
{"tested_on": "not listed separately", "assay": "Selective ratio of inhibition of GuaB2 Tyr487Cys mutant in Mycobacterium tuberculosis H37Rv SRMV2.6 to inhibition of wild type GuaB2 in Mycobacterium tuberculosis H37Rv"}
{"compound": "O=C(Nc1ccc2c(c1)OCO2)N1CCN(S(=O)(=O)c2cccc3cnccc23)CC1", "Ratio": 4}
{"compound": "CC1CCCCC1C(=O)N1CCN(S(=O)(=O)c2cccc3cnccc23)CC1", "note": "(configuration not stated)", "Ratio": "16 to 32"}
{"compound": "Cc1ccccc1CNC(=O)N1CCN(S(=O)(=O)c2cccc3cnccc23)CC1", "Ratio": "16 to 32"}
{"compound": "O=C(C1CCCCC1)N1CCN(S(=O)(=O)c2cccc3cnccc23)CC1", "Ratio": 32}
{"compound": "CC1CN(S(=O)(=O)c2cccc3cnccc23)CCN1C(=O)Nc1ccc2c(c1)OCO2", "note": "(configuration not stated)", "Ratio": "8 to 16"}
{"compound": "O=C(Nc1ccc2c(c1)OCO2)N1CCCN(S(=O)(=O)c2cccc3cnccc23)CC1", "Ratio": "8 to 16"}
